Our source for the EC50 and EC90 values is PMC8874959 (Viruses, 2022).

Assay [1] concerns SARS-CoV-2 D614G.
The subject of assay [2] is SARS-CoV-2 D614G. The source holds these as a separate data set.

Where two headings read alike, the source gives them in different places.

Usually EC50 stands for the concentration needed to bring the measured effect to its halfway point. For orientation: EC90 means the concentration at which the effect reaches the 90% level. A higher EC90 goes with a need for much substance. In the case of `CCN(CC)CCCC(C)Nc1ccnc2cc(Cl)ccc12` (centres unmarked) [Chloroquine], the values for the EC50 with SARS-CoV-2 D614G [1] and in the assay on SARS-CoV-2 D614G [2] were greater than 10 µM and 1.1 ± 0.07 µM, respectively. In addition, the EC90 in the assay with SARS-CoV-2 D614G [1] is greater than 10 µM; in the assay on SARS-CoV-2 D614G [2] it was 3.5 ± 0.8 µM.
In the assay on SARS-CoV-2 D614G [2], `OC(c1cc(C(F)(F)F)nc2c(C(F)(F)F)cccc12)C1CCCCN1` (centres unmarked) [Mefloquine] yielded an EC50 of 0.6 ± 0.03 µM.
